These results are taken from patent publication US20250268876A1, “TREATMENT OF HIDRADENITIS SUPPURATIVA WITH ORISMILAST” (UNION THERAPEUTICS A/S, priority 2021, published 2025).

Values joined by “and” are separate entries in the source; they are usually repeats but may differ in a detail not shown here. Identical values can stand only once. Like-named read-outs stand apart in the source and are kept apart here. Marks after values point to notes of the source that are not given here.

In data set [1] the test system is TNF-α secretion from human whole blood. The data set is described as follows: Whole blood TNF-α secretion assay (LPS or SEB). In kind it is cell-based.
Data set [2] relates to Hidradenitis suppurativa (HS). Conditions: two phase II studies, moderate HS; none of the patients in the placebo group; cited from earlier work.
Data set [3] deals with conscious, unrestrained ferret. Particulars: in vivo, po, 1 mg/kg.
Another data set in a line: Emesis study in ferrets. Particulars: ferret, in vivo, po.
A further data set has as its system TNF-α. The data set is described as follows: LPS-induced TNF-α in ferrets after single oral administration. Particulars: oral 1 and 3 mg/kg; 1 hour after LPS (3 mg/kg ip).
[4] abbreviates: Homo sapiens, 24 h, SEB 1 μg/mL, 24 hours, donor 1, read-out: Emax.
The mark [5] stands for this setting: Homo sapiens, 48 h, SEB 1 μg/mL, 48 hours, donor 1, read-out: Emax.
[6] abbreviates: Homo sapiens, 48 h, SEB 1 μg/mL, 48 hours, donor 2, read-out: Emax.

As to `C[C@@H]1CCN(C(=O)CC#N)C[C@@H]1N(C)c1ncnc2[nH]ccc12` [Tofacitinib], the Emax in data set [1] (setting [4]) is 98%; in data set [1] (setting [5]) it was 95%; in data set [1] (setting [6]) it was 102%; in data set [1] (SEB 1 μg/mL, 24 hours, donor 2), 100*. Also, the “Effect on TNF-α secretion (in words)” value in data set [1] (LPS 1 μg/mL, 24 hours) is “Stimulation”; in data set [1] (LPS 1 μg/mL, 48 hours), “Stimulation”.
For `CCOc1cc([C@@H](CS(C)(=O)=O)N2C(=O)c3cccc(NC(C)=O)c3C2=O)ccc1OC` [Apremilast], the Emax in data set [1] (Homo sapiens, 24 h, LPS 1 μg/mL, 24 hours, donor 1, Emax defined as TNF-α level in un-stimulated wells, read-out: Emax) came out at 74%; in data set [1] (Homo sapiens, 24 h, LPS 1 μg/mL, 24 hours, donor 2, read-out: Emax) it was 79%; in data set [1] (setting [4]), 98%; in data set [1] (Homo sapiens, 24 h, SEB 1 μg/mL, 24 hours, donor 2, read-out: Emax), 65%; in data set [1] (Homo sapiens, 48 h, LPS 1 μg/mL, 48 hours, donor 1, read-out: Emax), 77%; in data set [1] (Homo sapiens, 48 h, LPS 1 μg/mL, 48 hours, donor 2, read-out: Emax) it was 78%. For the same compound, the Emax in data set [1] (setting [5]) was found to be 97%; in data set [1] (setting [6]) it was 80%. The EC50 in data set [1] (Homo sapiens, 24 h, LPS 1 μg/mL, 24 hours, donor 1, read-out: EC50) was found to be 210 nM; in data set [1] (Homo sapiens, 24 h, LPS 1 μg/mL, 24 hours, donor 2, read-out: EC50) it was 283 nM; in data set [1] (Homo sapiens, 24 h, SEB 1 μg/mL, 24 hours, donor 2, read-out: EC50), 620 nM; in data set [1] (Homo sapiens, 48 h, LPS 1 μg/mL, 48 hours, donor 1, read-out: EC50), 277 nM; in data set [1] (Homo sapiens, 48 h, LPS 1 μg/mL, 48 hours, donor 2, read-out: EC50), 364 nM; in data set [1] (Homo sapiens, 48 h, SEB 1 μg/mL, 48 hours, donor 1, read-out: EC50) it was 155 nM. The EC50 is 573 nM in data set [1] (Homo sapiens, 48 h, SEB 1 μg/mL, 48 hours, donor 2, read-out: EC50); 287 nM and 0.132 µg/mL in data set [1] (Homo sapiens, mean of 8 determinations (LPS and SEB, 24 and 48 hours, 2 donors), read-out: Geometric mean of EC50 values across different assay parameters). The “treated patients with a positive HS clinical response (HiSCR)” value in data set [2] is recorded as “more than 50%”.
Turning to `O=C(Nc1c(Cl)c[n+]([O-])cc1Cl)c1ccc(OC(F)F)c(OCC2CC2)c1` [Roflumilast N-oxide], the Emax in data set [1] (LPS 1 μg/mL, 24 hours, donor 1, Emax defined as TNF-α level in un-stimulated wells) amounted to 72; in data set [1] (LPS 1 μg/mL, 24 hours, donor 2) it was 79; in data set [1] (LPS 1 μg/mL, 48 hours, donor 1) it was 75; in data set [1] (LPS 1 μg/mL, 48 hours, donor 2), 78; in data set [1] (SEB 1 μg/mL, 24 hours, donor 1), 97; in data set [1] (SEB 1 μg/mL, 24 hours, donor 2) it was 66. In addition, the Emax in data set [1] (SEB 1 μg/mL, 48 hours, donor 1) is on record as 97; in data set [1] (SEB 1 μg/mL, 48 hours, donor 2), 80. Moreover, the EC50 in data set [1] (LPS 1 μg/mL, 24 hours, donor 1, read-out: EC50) is 23.4 nM; in data set [1] (LPS 1 μg/mL, 24 hours, donor 2, read-out: EC50), 24 nM; in data set [1] (LPS 1 μg/mL, 48 hours, donor 1, read-out: EC50), 38.6 nM; in data set [1] (LPS 1 μg/mL, 48 hours, donor 2, read-out: EC50), 35 nM; in data set [1] (SEB 1 μg/mL, 24 hours, donor 1, read-out: EC50) it was 8.69 nM; in data set [1] (SEB 1 μg/mL, 24 hours, donor 2, read-out: EC50) it was 35.6 nM. Also, the EC50 in data set [1] (SEB 1 μg/mL, 48 hours, donor 1, read-out: EC50) is 4.77 nM; in data set [1] (SEB 1 μg/mL, 48 hours, donor 2, read-out: EC50), 33.4 nM; in data set [1] (mean of 8 determinations (LPS and SEB, 24 and 48 hours, 2 donors), read-out: Geometric mean of EC50 values across different assay parameters) it was 21 nM. Moreover, in data set [1] (mean of 8 determinations (LPS and SEB, 24 and 48 hours, 2 donors)), the “Geometric mean of EC50 values across different assay parameters” value stood at 8.80 ng/mL.
For `O=C(Nc1c(Cl)cncc1Cl)c1ccc(OC(F)F)c(OCC2CC2)c1` [Roflumilast], the Emetogenic properties entry in data set [3] is listed as “absent”. In the data set “Emesis study in ferrets”, the NOAEL at 3 h is 1 mg/kg. Also, the “increase of TNF-α levels observed at 1 hour” value in the data set on TNF-α is “attenuated in a dose-related manner”.
